Test results: ChEMBL document CHEMBL1201862, “PubChem BioAssay data set” (2004)
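Values below derive from 48-hour exposures of cells grown in 96-well plates, with endpoints linearly interpolated between the two concentrations bracketing the appropriate inhibition level. At the GI50, growth is halved.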 Activity calls are given as the source filed them. Cut-off read from the data, not from the text of the source: active = GI50 up to about 1.1 µM and inactive = higher.

Key:
Assay in all cases: DTP human tumour cell line panel, 48 h
[1] = tested on: U-251
[2] = tested on: HOP-62
[3] = tested on: UACC-62
[4] = tested on: HCT-15
[5] = tested on: HL-60
[6] = tested on: M19-MEL
[7] = tested on: OVCAR-3
[8] = tested on: ACHN
[9] = tested on: LOX IMVI
[10] = tested on: LXFL 529
[11] = tested on: XF498
[12] = tested on: NCI-H23
[13] = tested on: SR
[14] = tested on: SN12C
[15] = tested on: RXF 393
[16] = tested on: MOLT-4
[17] = tested on: SF-539
[18] = tested on: RXF 631
[19] = tested on: RPMI-8226
[20] = tested on: HCC 2998
[21] = tested on: IGROV-1
[22] = tested on: DLD-1
[23] = tested on: UACC-257
[24] = tested on: Malme-3M
[25] = tested on: SK-MEL-5
[26] = tested on: TK-10
[27] = tested on: UO-31
[28] = tested on: SK-MEL-2
[29] = tested on: SNB-19
[30] = tested on: SK-MEL-28
[31] = tested on: 786-0
[32] = tested on: COLO 205
[33] = tested on: KM-20L2
[34] = tested on: NCI-H460
[35] = tested on: A549
[36] = tested on: SNB-75
[37] = tested on: OVCAR-4
[38] = tested on: A498
[39] = tested on: SF-268
[40] = tested on: SF-295
[41] = tested on: HCT-116
[42] = tested on: M14
[43] = tested on: SW-620
[44] = tested on: NCI-H226
[45] = tested on: K562
[46] = tested on: EKVX
[47] = tested on: DMS-273
[48] = tested on: DMS-114
[49] = tested on: CCRF-CEM
[50] = tested on: OVCAR-8
[51] = tested on: NCI-H522
[52] = tested on: SNB-78
[53] = tested on: KM12
[54] = tested on: HOP-18
[55] = tested on: CAKI-1
[56] = tested on: SK-OV-3
[57] = tested on: HOP-92
[58] = tested on: HT-29
[59] = tested on: OVCAR-5

Measured: GI50

Cc1ccc(C2(C)NC(=S)N(NC(N)=S)C2=S)cc1 (stereo unspecified)
> 100 µM: [4]
inactive: [1] > 100 µM | [2] > 100 µM | [3] 43.2 µM | [5] > 100 µM | [6] > 100 µM | [7] > 100 µM | [8] > 100 µM | [9] 47 µM | [10] 71.8 µM | [11] > 100 µM | [12] > 100 µM | [13] 51.6 µM | [14] > 100 µM | [15] 80.2 µM | [16] 46.3 µM | [17] > 100 µM | [18] > 100 µM | [19] 32.7 µM | [20] > 100 µM | [21] > 100 µM | [22] 71.1 µM | [23] > 100 µM | [24] > 100 µM | [25] > 100 µM | [26] > 100 µM | [27] > 100 µM | [28] > 100 µM | [29] > 100 µM | [30] > 100 µM | [31] 81.1 µM | [32] > 100 µM | [33] > 100 µM | [34] > 100 µM | [35] > 100 µM | [36] 25.3 µM | [37] > 100 µM | [38] > 100 µM | [39] > 100 µM | [40] > 100 µM | [41] > 100 µM | [42] > 100 µM | [43] 87.7 µM | [44] > 100 µM | [45] 39.6 µM | [46] > 100 µM | [47] > 100 µM | [48] 73.6 µM | [49] 24.6 µM | [50] > 100 µM

O=C(Nc1cccc2c1C(=O)c1c(NC(=O)c3ccccc3)ccc(Nc3cccc4c3C(=O)c3ccccc3C4=O)c1C2=O)c1ccccc1
> 100 µM: [4]
inactive: [1] > 100 µM | [51] > 100 µM | [2] > 100 µM | [3] > 100 µM | [5] > 100 µM | [6] > 100 µM | [7] > 100 µM | [8] > 100 µM | [52] > 100 µM | [10] > 100 µM | [53] > 100 µM | [13] > 100 µM | [14] > 100 µM | [15] 59.4 µM | [16] > 100 µM | [17] > 100 µM | [18] > 100 µM | [19] > 100 µM | [20] > 100 µM | [21] > 100 µM | [22] > 100 µM | [54] > 100 µM | [23] > 100 µM | [24] > 100 µM | [25] > 100 µM | [26] > 100 µM | [27] > 100 µM | [28] > 100 µM | [29] > 100 µM | [30] > 100 µM | [31] > 100 µM | [32] > 100 µM | [33] > 100 µM | [34] > 100 µM | [35] > 100 µM | [55] > 100 µM | [36] 70.3 µM | [37] > 100 µM | [56] > 100 µM | [38] > 100 µM | [39] > 100 µM | [41] > 100 µM | [42] > 100 µM | [43] > 100 µM | [44] > 100 µM | [45] > 100 µM | [46] > 100 µM | [47] > 100 µM | [48] > 100 µM | [49] > 100 µM | [50] > 100 µM

Cc1cc(C(C)C)cc(=O)c(O)c1
> 100 µM: [4]
inactive: [1] > 100 µM | [51] > 100 µM | [2] > 100 µM | [3] > 100 µM | [5] > 100 µM | [6] > 100 µM | [7] > 100 µM | [8] > 100 µM | [9] > 100 µM | [52] > 100 µM | [10] > 100 µM | [57] > 100 µM | [53] > 100 µM | [13] > 100 µM | [14] > 100 µM | [15] > 100 µM | [16] > 100 µM | [17] > 100 µM | [18] > 100 µM | [19] > 100 µM | [20] > 100 µM | [21] > 100 µM | [22] > 100 µM | [54] > 100 µM | [23] > 100 µM | [24] > 100 µM | [25] > 100 µM | [26] > 100 µM | [27] > 100 µM | [29] > 100 µM | [30] > 100 µM | [31] > 100 µM | [32] > 100 µM | [33] > 100 µM | [34] > 100 µM | [35] > 100 µM | [58] > 100 µM | [55] > 100 µM | [36] > 100 µM | [37] > 100 µM | [56] > 100 µM | [38] > 100 µM | [39] > 100 µM | [40] > 100 µM | [41] > 100 µM | [42] > 100 µM | [43] > 100 µM | [44] > 100 µM | [46] > 100 µM | [47] > 100 µM | [49] > 100 µM | [59] > 100 µM | [50] > 100 µM

COC(=O)c1sc(=NC(=S)N2CCCCC2)sc1C(=O)OC
> 100 µM: [4]
active: [51] 0.569 µM
inactive: [1] 32.4 µM | [2] > 100 µM | [3] > 100 µM | [5] > 100 µM | [6] 5.69 µM | [7] 3.01 µM | [8] > 100 µM | [52] > 100 µM | [10] > 100 µM | [53] 91.4 µM | [13] 22.9 µM | [14] > 100 µM | [15] > 100 µM | [16] > 100 µM | [17] > 100 µM | [18] 62.7 µM | [19] > 100 µM | [20] > 100 µM | [21] > 100 µM | [22] > 100 µM | [54] > 100 µM | [23] > 100 µM | [24] > 100 µM | [25] 80.9 µM | [26] > 100 µM | [27] 98.4 µM | [28] > 100 µM | [29] > 100 µM | [30] > 100 µM | [31] > 100 µM | [32] 63 µM | [33] > 100 µM | [34] 6.38 µM | [55] > 100 µM | [36] > 100 µM | [37] > 100 µM | [56] > 100 µM | [38] > 100 µM | [39] > 100 µM | [41] > 100 µM | [42] > 100 µM | [43] > 100 µM | [44] > 100 µM | [45] 71.6 µM | [47] 18.2 µM | [48] 62.7 µM | [49] 32.7 µM | [50] > 100 µM

CCOP(=O)(OCC)C1=NC=CC=CC1n1c(-c2ccccc2)nn(CC)c1=O (stereo unspecified)
> 100 µM: [4]
inactive: [1] > 100 µM | [51] > 100 µM | [2] > 100 µM | [3] > 100 µM | [5] > 100 µM | [6] > 100 µM | [7] > 100 µM | [8] > 100 µM | [9] > 100 µM | [10] > 100 µM | [57] 7.06 µM | [12] > 100 µM | [53] > 100 µM | [13] > 100 µM | [14] > 100 µM | [15] > 100 µM | [16] > 100 µM | [17] > 100 µM | [18] > 100 µM | [19] > 100 µM | [20] > 100 µM | [21] > 100 µM | [22] > 100 µM | [54] > 100 µM | [23] > 100 µM | [24] > 100 µM | [25] > 100 µM | [26] > 100 µM | [28] > 100 µM | [29] > 100 µM | [30] > 100 µM | [31] > 100 µM | [32] > 100 µM | [33] > 100 µM | [34] > 100 µM | [35] > 100 µM | [58] > 100 µM | [55] > 100 µM | [56] > 100 µM | [39] > 100 µM | [40] > 100 µM | [41] > 100 µM | [43] > 100 µM | [44] > 100 µM | [46] > 100 µM | [47] > 100 µM | [48] > 100 µM | [49] > 100 µM | [50] > 100 µM
